Data: article PMC4884984, “Identification of approved and investigational drugs that inhibit hypoxia-inducible factor-1 signaling” (Oncotarget, 2016)
“Also recorded” adds a separate entry of the source. Like-named read-outs stand apart in the source and are kept apart here. One block for each molecule: values may come before it.

Legend:
Type in all cases: cell-based, human
HIF-1α–NanoLuc = HIF-1α–NanoLuc reporter gene assay (qHTS primary and confirmatory screens)
[1] = tested on: hypoxia response element-beta-lactamase (HRE–bla); experiment: HRE-bla reporter gene assay in ME-180 cells; conditions: for IC50: read-out: HRE–bla confirmatory IC50; for Emax: read-out: HRE–bla confirmatory Efficacy; for Effect on HRE–bla transcriptional activity, in words: ME-180 cells
[2] = tested on: HIF-1α–NanoLuc HCT116 cells; experiment: Viability (Luc): CellTiter-Glo counter screen in HIF-1α–NanoLuc cells; conditions: for Viability (Luc) confirmatory IC50: Table S7, 1% O2, 18 h; for IC50: Homo sapiens, HCT-116, Table S7, confirmatory screen, 1% O2, 18 h
HRE–bla ME-180 cells = experiment: Viability (BLA): CellTiter-Glo counter screen in HRE–bla cells; conditions: for IC50: 1% O2, 18 h; for Viability (BLA) confirmatory IC50: Table S7, 1% O2, 18 h
[3] = Table S2, validation, read-out: Pathway inhibitors (validation) HIF-1α–NanoLuc Activity IC50
[4] = Homo sapiens, Table S7, confirmatory screen, read-out: HIF-1α–NanoLuc confirmatory Efficacy
[5] = Homo sapiens, Table S7, confirmatory screen, read-out: HIF-1α–NanoLuc confirmatory IC50
[6] = Homo sapiens, Table S7, primary screen, read-out: HIF-1α–NanoLuc primary Efficacy
[7] = Homo sapiens, Table S7, primary screen, read-out: HIF-1α–NanoLuc primary IC50
[8] = Homo sapiens, ME-180, Table S7, confirmatory screen
[9] = Homo sapiens, Table S1, primary screen, hypoxia 1% O2, 18 h, read-out: IC50 (primary screen, HIF-1α–NanoLuc assay)
[10] = Homo sapiens, Table S1, primary screen, read-out: Efficacy (primary screen, HIF-1α–NanoLuc assay)
[11] = Homo sapiens, Table S2, validation, read-out: Pathway inhibitors (validation) HIF-1α–NanoLuc Activity Efficacy
[12] = Homo sapiens, Table S2, validation, read-out: Pathway inhibitors (validation) HIF-1α–NanoLuc Activity IC50

SMILES: C[C@]1(O)C[C@@H](c2nc(-c3ccc4ccc(-c5ccccc5)nc4c3)c3c(N)nccn32)C1 [OSI-906]
IC50 (HIF-1α–NanoLuc; Homo sapiens, HCT-116, HCT116 reporter cells, hypoxia, read-out: HIF-1α–NanoLuc IC50): 6.23 ± 1.64 µM

SMILES: O=C1NCN(c2ccccc2)C12CCN(CCCOc1ccc(F)cc1)CC2 [AMI-193]
Emax (HIF-1α–NanoLuc; [4]): 48 ± 6% | IC50 (HIF-1α–NanoLuc; [5]): 12.2 ± 0.83 µM | Emax (HIF-1α–NanoLuc; [6]): 57% | IC50 (HIF-1α–NanoLuc; [7]): 3.35 µM | HRE–bla confirmatory IC50 ([1]; Table S7, confirmatory screen): Inactive | Viability (Luc) confirmatory IC50 [2]: Inactive | IC50 (HRE–bla ME-180 cells; [8]): 25.8 ± 4.4 µM

SMILES: COc1cccc2c1C(=O)c1c(O)c3c(c(O)c1C2=O)C[C@@](O)(C(=O)CO)C[C@@H]3O[C@H]1C[C@H](N)[C@H](O[C@@H]2CCCCO2)[C@H](C)O1 [Pirarubicin]
IC50 (HIF-1α–NanoLuc; [9]): 11.9 µM | Emax (HIF-1α–NanoLuc; [10]): 97%

SMILES: O=C(Nc1ccc(Cl)cc1)Nc1ccc(Cl)c(C(F)(F)F)c1 [Cloflucarban]
Emax (HIF-1α–NanoLuc; [4]): 98 ± 4% | IC50 (HIF-1α–NanoLuc; [5]): 14.3 ± 0.93 µM | Emax (HIF-1α–NanoLuc; [6]): 66% | IC50 (HIF-1α–NanoLuc; [7]): 7.5 µM | Emax [1, 8]: 98 ± 1% | IC50 [1, 8]: 6.8 ± 1.55 µM | Viability (Luc) confirmatory IC50 [2]: Inactive | IC50 (HRE–bla ME-180 cells; [8]): 22.9 ± 3.16 µM

SMILES: CC(C)C[C@H](NC(=O)[C@H](CCc1ccccc1)NC(=O)CN1CCOCC1)C(=O)N[C@@H](Cc1ccccc1)C(=O)N[C@@H](CC(C)C)C(=O)[C@@]1(C)CO1 [carfilzomib]
Effect on HIF-1α–NanoLuc level / luciferase activity, in words (HIF-1α–NanoLuc; HCT116 reporter cells): potently induced accumulation of HIF-1α–NanoLuc proteins | Effect on HRE–bla transcriptional activity, in words [1]: inhibited the transcriptional activity of HRE–bla

SMILES: Cn1cnc([N+](=O)[O-])c1Sc1ncnc2nc[nH]c12 [Azathioprine]
Emax (HIF-1α–NanoLuc; [4]): 50 ± 11% | IC50 (HIF-1α–NanoLuc; [5]): 8.07 ± 1.82 µM | Emax (HIF-1α–NanoLuc; [6]): 67% | IC50 (HIF-1α–NanoLuc; [7]): 3.42 µM | HRE–bla confirmatory IC50 ([1]; Table S7, confirmatory screen): Inactive | IC50 [2]: 2.11 ± 0.53 µM | Viability (BLA) confirmatory IC50 (HRE–bla ME-180 cells): Inactive

SMILES: C=C(C)[C@H]1Cc2c(ccc3c2O[C@@H]2COc4cc(OC)c(OC)cc4[C@@H]2C3=O)O1 [Rotenone]
IC50 (HIF-1α–NanoLuc; Homo sapiens, 18 h, read-out: IC50 (primary screen, HIF-1α–NanoLuc assay)): 0.19 µM | Emax (HIF-1α–NanoLuc; Homo sapiens, read-out: Efficacy (primary screen, HIF-1α–NanoLuc assay)): 91%

SMILES: CN1CC[C@H](c2c(O)cc(O)c3c(=O)cc(-c4ccccc4Cl)oc23)[C@H](O)C1 [Flavopiridol]
IC50 (HIF-1α–NanoLuc; [9]): 1.06 µM | Emax (HIF-1α–NanoLuc; [10]): 76%

SMILES: Cn1nccc1Nc1nccc(-c2ccn([C@H](CO)c3ccc(Cl)c(F)c3)c(=O)c2)n1 [GDC-0994]
Emax (HIF-1α–NanoLuc; [11]): 63 ± 7% | IC50 (HIF-1α–NanoLuc; [12]): 6.11 ± 1.64 µM

SMILES: O=C(CCCCCCC(=O)Nc1ccccc1)NO [Vorinostat]
Emax (HIF-1α–NanoLuc; [10]): 51%

SMILES: CC(C)C[C@H](NC(=O)[C@H](Cc1ccccc1)NC(=O)c1cnccn1)B(O)O [bortezomib]
Effect on HIF-1α–NanoLuc level / luciferase activity, in words (HIF-1α–NanoLuc; HCT116 reporter cells): resulted in protein accumulation and increased luciferase activity; also recorded: potently induced accumulation of HIF-1α–NanoLuc proteins | Effect on HRE–bla transcriptional activity, in words [1]: inhibited the transcriptional activity of HRE–bla

SMILES: Cc1ccc(NC(=O)c2ccc(CN3CCN(C)CC3)cc2)cc1Nc1nccc(-c2cccnc2)n1 [Imatinib]
Emax (HIF-1α–NanoLuc; Homo sapiens, Table S2, primary screen, read-out: Pathway inhibitors (primary screen) HIF-1α–NanoLuc Activity Efficacy): 28%

SMILES: COc1cc([C@@H]2c3cc4c(cc3[C@H](O)[C@H]3COC(=O)[C@@H]23)OCO4)cc(OC)c1OC [Picropodphyllin]
Pathway inhibitors (primary screen) HIF-1α–NanoLuc Activity Efficacy (HIF-1α–NanoLuc; Table S2, primary screen): 159% | IC50 (HIF-1α–NanoLuc; Table S2, primary screen, read-out: Pathway inhibitors (primary screen) HIF-1α–NanoLuc Activity IC50): 0.53 µM | Pathway inhibitors (validation) HIF-1α–NanoLuc Activity Efficacy (HIF-1α–NanoLuc; Table S2, validation): 159% | IC50 (HIF-1α–NanoLuc; [3]): 0.53 µM

SMILES: O=c1c(-c2ccc(O)cc2)coc2cc(O)cc(O)c12 [Genistein]
IC50 (HIF-1α–NanoLuc; [9]): 8.41 µM | Emax (HIF-1α–NanoLuc; [10]): 65%

The next lines start with results.

IC50 (HIF-1α–NanoLuc; [3]): 0.67 ± 0.26 µM | IC50 ([1]; Table S7, confirmatory screen): 12.2 ± 3.9 µM
SMILES: CC(/C=C/C(=O)NO)=C\[C@@H](C)C(=O)c1ccc(N(C)C)cc1 [Trichostatin A]
Pathway inhibitors (validation) HIF-1α–NanoLuc Activity Efficacy (HIF-1α–NanoLuc; Table S2, validation): 55 ± 4% | HIF-1α–NanoLuc confirmatory Efficacy (HIF-1α–NanoLuc; Table S7, confirmatory screen): 55 ± 4% | HRE–bla confirmatory Efficacy ([1]; Table S7, confirmatory screen): 92 ± 11% | Viability (Luc) confirmatory IC50 [2]: Inactive | IC50 (HRE–bla ME-180 cells; Table S7, confirmatory screen): 9.68 ± 3.79 µM | Emax (HRE–bla ME-180 cells; Table S7, confirmatory screen, read-out: Viability (BLA) confirmatory Efficacy): 43 ± 13%

IC50 (HIF-1α–NanoLuc; [5]): 17.3 ± 1.17 µM | IC50 (HIF-1α–NanoLuc; [7]): 9.44 µM | IC50 [1, 8]: 3 ± 0.34 µM
SMILES: CC(=O)Oc1ccccc1C(=O)Nc1ncc([N+](=O)[O-])s1 [Nitazoxanide]
Emax (HIF-1α–NanoLuc; [4]): 101 ± 14% | Emax (HIF-1α–NanoLuc; [6]): 150% | Emax [1, 8]: 88 ± 1% | IC50 [2]: 9.39 ± 1.08 µM | IC50 (HRE–bla ME-180 cells; [8]): 3 ± 0.34 µM

IC50 [1, 8]: 12.8 ± 0.84 µM
SMILES: O=c1c(O)c(-c2ccc(O)c(O)c2)oc2cc(O)cc(O)c12 [Quercetine]
Emax [1, 8]: 84 ± 10% | Viability (BLA) confirmatory IC50 (HRE–bla ME-180 cells): Inactive

IC50 (HIF-1α–NanoLuc; [9]): 15 µM
SMILES: CCOC(=O)C1=C(C)NC(C)=C(C(=O)OC)C1c1cccc([N+](=O)[O-])c1 (stereo not shown) [Nitrendipine]
Emax (HIF-1α–NanoLuc; [10]): 157%

IC50 (HIF-1α–NanoLuc; [9]): 15 µM
SMILES: COCCOC(=O)C1=C(C)NC(C)=C(C(=O)OC(C)C)C1c1cccc([N+](=O)[O-])c1 (stereo not shown) [Nimodipine]
Emax (HIF-1α–NanoLuc; [10]): 132%

IC50 (HIF-1α–NanoLuc; [12]): 9.57 ± 5.6 µM
SMILES: CC[C@@H]1C(=O)N(C)c2cnc(Nc3ccc(C(=O)N[C@H]4CC[C@H](N5CCN(CC6CC6)CC5)CC4)cc3OC)nc2N1C(C)C [Volasertib]
Emax (HIF-1α–NanoLuc; [11]): 78 ± 14%

IC50 (HIF-1α–NanoLuc; [9]): 10.6 µM
SMILES: COCCOC(=O)C1=C(C)NC(C)=C(C(=O)OC/C=C/c2ccccc2)C1c1cccc([N+](=O)[O-])c1 (stereo not shown) [Cilnidipine]
Emax (HIF-1α–NanoLuc; [10]): 63%
